Patent US9458194B2, “Compounds useful in the treatment and/or care of the skin and their cosmetic or pharmaceutical compositions” (Lubrizol Advanced Materials, Inc., priority 2013, dated 2016)
Non-standard residues stand in square brackets, D forms with d. *: point of attachment. Palmitoyl = CCCCCCCCCCCCCCCC(=O)*; Orn = NCCC[C@H](N)C(=O)O; Dap = NC[C@H](N)C(=O)O; Dbu = Diaminobutyryl; NHHex = CCCCCCN*

Columns and labels:
[1] = tested on: human fibulin-5 gene promoter; test: Luminescence assay of human fibulin-5 gene promoter activation (Firefly luciferase); assay type: cell-based; settings: 16-24 hours
Method: (§1) The effect of the compounds of the invention on the activity of the fibulin-5 and LOXL1 promoters was studied and compared to the levels of basal expression of the untreated cells (negative control) and with the effect of Interleukin-1β (IL-1β) in the same conditions.
(§2) Cells from an epithelial cell line doubly transfected with fibulin-5 and LOXL1 human promoters in which the luciferase gene is under the regulatory control of said promoters (4×10^4 cells/well) were seeded in a white plate and in a 96-well transparent plate, both treated with polylysine, and were incubated in Dulbecco's Modified Eagle Medium (DMEM-Glutamax™), with 10% of FBS, 1% Penicillin-Streptomycin (P/S), 1 mg/ml of Geneticin® (G418) and […] at 37° C. in at atmosphere with 5% CO2. After the incubation, the cells were incubated for 6 hours at 37° C. in at atmosphere with 5% CO2 with DMEM without serum. Then, this medium was removed and the cells were treated with different compounds at 0.1 mg/ml, 0.5 mg/ml, 1 mg/ml or 2 mg/mL in DMEM/1% FBS for 16-24 hours. As a positive control to activate the fibulin-5 and LOXL1 promoters 10 ng/ml of IL-1β were used and as a negative control untreated cells were used, just with DMEM/1% FBS. The incubations and treatments were carried out in parallel in the white plate and the transparent plate and in triplicate for each condition. After the treatment, the relative light units per second were determined (RLU/s) in the white plate by means of consecutive quantification of the activities of Firefly luciferase (fibulin-5 promoter) and Renilla luciferase (LOXL1 promoter), and the number of total cells/well in the transparent plate by means of staining with Crystal Violet (CV). To determine the Firefly and Renilla luciferase activities the Dual-Glo Luciferase Assay System kit by Promega was used. The cells were briefly lysed and the Firefly luciferase substrate was added. After incubating for 10 min at 25° C., the RLU/s were quantified by luminescence reader (Lumistar-BMG). Then the Firefly signal was extinguished and the Renilla luciferase substrate was added. After incubating for 5 min at 25° C., the RLU/s were quantified by the same luminescence reader. With regard to the determination of the total number of cells by Crystal Violet, the CV dyes the DNA of the cells and the quantity of dye taken by the cells can be measured in an absorbency reader at 630 nm (Multiskan Ascent). The color obtained is directly proportional to the total number of cells per well. The cells were briefly incubated with 0.05% CV plus 4% Formalin for 20 minutes and after several washes with Milli-Q water, the cells were left to dry for 1-2 hours and then 0.1 M of HCl was added for its immediate reading. The RLU/s of the luciferases corresponding to each promoter were normalized by the average of the total number of cells per condition. Three independent assays with 3 measurements per assay were carried out for Ac-L-Asp-L-Val-L-Lys-L-Tyr-OH at 0.1 mg/mL and 1 mg/mL. 1 assay with 3 measurements was carried out for the other compounds and concentrations.
(§3) The increase in the activity of the promoters with regard to the levels of expression of the negative control was determined.

[2] = tested on: human LOXL1 gene promoter; test: Luminescence assay of human LOXL1 gene promoter activation (Renilla luciferase); assay type: cell-based; settings: 16-24 hours
Method: as §1, §2, §3

Ac-L-Gln-L-Val-L-Lys-L-Tyr-OH (Ac-QVKY-OH)
Increase in the activity of the human promoter of the FIBULIN 5 gene with regard to the negative control ([1]; 2 mg/mL): 19.79%
Increase in the activity of the human promoter of the LOXL1 gene with regard to the negative control ([2]; 2 mg/mL): 22.61%

Ac-L-Asp-L-Val-L-Dbu-L-Tyr-OH (Ac-DV[Dbu]Y-OH)
Increase in the activity of the human promoter of the FIBULIN 5 gene with regard to the negative control ([1]; 2 mg/mL): 17.08%
Increase in the activity of the human promoter of the LOXL1 gene with regard to the negative control ([2]; 2 mg/mL): 28.10%

Ac-L-Asp-L-Leu-L-Lys-L-Tyr-OH (Ac-DLKY-OH)
Increase in the activity of the human promoter of the FIBULIN 5 gene with regard to the negative control ([1]; 2 mg/mL): 15.42%
Increase in the activity of the human promoter of the LOXL1 gene with regard to the negative control ([2]; 2 mg/mL): 14.96%

Ac-L-Gln-L-Val-L-Lys-L-Trp-NH2 (Ac-QVKW-NH2)
Increase in the activity of the human promoter of the FIBULIN 5 gene with regard to the negative control ([1]; 2 mg/mL): 38.10%
Increase in the activity of the human promoter of the LOXL1 gene with regard to the negative control ([2]; 2 mg/mL): 18.08%

Ac-Gly-L-Gln-L-Lys(Ac-Gly-L-Gln)-4-Abz-NH2
Increase in the activity of the human promoter of the FIBULIN 5 gene with regard to the negative control ([1]; 0.5 mg/mL): 17%
Increase in the activity of the human promoter of the LOXL1 gene with regard to the negative control ([2]; 0.5 mg/mL): 79%

H-L-Asn-L-Leu-L-Lys-L-Tyr-OH (H-NLKY-OH)
Increase in the activity of the human promoter of the FIBULIN 5 gene with regard to the negative control ([1]; 2 mg/mL): 9.69%
Increase in the activity of the human promoter of the LOXL1 gene with regard to the negative control ([2]; 2 mg/mL): 16.67%

H-L-Asp-L-Val-L-Lys-L-Tyr-OH (H-DVKY-OH)
Increase in the activity of the human promoter of the FIBULIN 5 gene with regard to the negative control ([1]; 2 mg/mL): 41.93%
Increase in the activity of the human promoter of the LOXL1 gene with regard to the negative control ([2]; 2 mg/mL): 21.82%

H-L-Gln-L-Ile-L-Orn-L-Tyr-OH (H-QI[Orn]Y-OH; SMILES CC[C@H](C)[C@H](NC(=O)[C@@H](N)CCC(N)=O)C(=O)N[C@@H](CCCN)C(=O)N[C@@H](Cc1ccc(O)cc1)C(=O)O)
Increase in the activity of the human promoter of the FIBULIN 5 gene with regard to the negative control ([1]; 2 mg/mL): 4.41%
Increase in the activity of the human promoter of the LOXL1 gene with regard to the negative control ([2]; 2 mg/mL): 47.99%

Ac-L-Gln-L-Val-L-Dbu-L-Trp-NH2 (Ac-QV[Dbu]W-NH2)
Increase in the activity of the human promoter of the FIBULIN 5 gene with regard to the negative control ([1]; 2 mg/mL): 26.39%
Increase in the activity of the human promoter of the LOXL1 gene with regard to the negative control ([2]; 2 mg/mL): 68.94%

Ac-L-Glu-L-Val-L-Lys-L-Trp-OH (Ac-EVKW-OH)
Increase in the activity of the human promoter of the FIBULIN 5 gene with regard to the negative control ([1]; 2 mg/mL): 10.92%
Increase in the activity of the human promoter of the LOXL1 gene with regard to the negative control ([2]; 2 mg/mL): 22.22%

Palm-L-Asp-L-Val-L-Lys-L-Tyr-OH (Palmitoyl-DVKY-OH; SMILES CCCCCCCCCCCCCCCC(=O)N[C@@H](CC(=O)O)C(=O)N[C@H](C(=O)N[C@@H](CCCCN)C(=O)N[C@@H](Cc1ccc(O)cc1)C(=O)O)C(C)C)
Increase in the activity of the human promoter of the FIBULIN 5 gene with regard to the negative control ([1]; 2 mg/mL): 32.47%
Increase in the activity of the human promoter of the LOXL1 gene with regard to the negative control ([2]; 2 mg/mL): 25.17%

Ac-L-Asp-L-Ile-L-Lys-L-Tyr-NH(n-hexadecyl) (Ac-DIKY-{NH(n-hexadecyl)})
Increase in the activity of the human promoter of the FIBULIN 5 gene with regard to the negative control ([1]; 2 mg/mL): 59.33%
Increase in the activity of the human promoter of the LOXL1 gene with regard to the negative control ([2]; 2 mg/mL): 27.08%

Ac-L-Asp-L-Val-L-Lys-L-Tyr-NH(n-hexyl) (Ac-DVKY-NHHex; SMILES CCCCCCNC(=O)[C@H](Cc1ccc(O)cc1)NC(=O)[C@H](CCCCN)NC(=O)[C@@H](NC(=O)[C@H](CC(=O)O)NC(C)=O)C(C)C)
Increase in the activity of the human promoter of the FIBULIN 5 gene with regard to the negative control ([1]; 2 mg/mL): 18.11%
Increase in the activity of the human promoter of the LOXL1 gene with regard to the negative control ([2]; 2 mg/mL): 7.54%

Ac-L-Gln-L-Met-L-Lys-L-Tyr-OH (Ac-QMKY-OH)
Increase in the activity of the human promoter of the FIBULIN 5 gene with regard to the negative control ([1]; 2 mg/mL): 6.05%
Increase in the activity of the human promoter of the LOXL1 gene with regard to the negative control ([2]; 2 mg/mL): 28.48%

Ac-L-Asn-L-Val-L-Dpr-L-Tyr-OH (Ac-NV[Dap]Y-OH; SMILES CC(=O)N[C@@H](CC(N)=O)C(=O)N[C@H](C(=O)N[C@@H](CN)C(=O)N[C@@H](Cc1ccc(O)cc1)C(=O)O)C(C)C)
Increase in the activity of the human promoter of the FIBULIN 5 gene with regard to the negative control ([1]; 2 mg/mL): 35.49%
Increase in the activity of the human promoter of the LOXL1 gene with regard to the negative control ([2]; 2 mg/mL): 3.99%

Ac-L-Asp-L-Val-L-Orn-L-Tyr-OH (Ac-DV[Orn]Y-OH; SMILES CC(=O)N[C@@H](CC(=O)O)C(=O)N[C@H](C(=O)N[C@@H](CCCN)C(=O)N[C@@H](Cc1ccc(O)cc1)C(=O)O)C(C)C)
Increase in the activity of the human promoter of the FIBULIN 5 gene with regard to the negative control ([1]; 2 mg/mL): 44.60%
Increase in the activity of the human promoter of the LOXL1 gene with regard to the negative control ([2]; 2 mg/mL): 28.35%

Ac-L-Asp-L-Met-L-Lys-L-Tyr-OH (Ac-DMKY-OH)
Increase in the activity of the human promoter of the FIBULIN 5 gene with regard to the negative control ([1]; 2 mg/mL): 14.36%
Increase in the activity of the human promoter of the LOXL1 gene with regard to the negative control ([2]; 2 mg/mL): 32.85%

Palm-L-Asn-L-Ile-L-Orn-L-Trp-NH(n-hexyl) (Palmitoyl-NI[Orn]W-NHHex; SMILES CCCCCCCCCCCCCCCC(=O)N[C@@H](CC(N)=O)C(=O)N[C@H](C(=O)N[C@@H](CCCN)C(=O)N[C@@H](Cc1c[nH]c2ccccc12)C(=O)NCCCCCC)[C@@H](C)CC)
Increase in the activity of the human promoter of the FIBULIN 5 gene with regard to the negative control ([1]; 1 mg/mL): 43.65%
Increase in the activity of the human promoter of the LOXL1 gene with regard to the negative control ([2]; 1 mg/mL): 18.48%

Ac-L-Lys-L-Cit-L-Lys(Ac-L-Lys-L-Cit)-4-Abz-NH2
Increase in the activity of the human promoter of the FIBULIN 5 gene with regard to the negative control ([1]; 0.5 mg/mL): 21%
Increase in the activity of the human promoter of the LOXL1 gene with regard to the negative control ([2]; 0.5 mg/mL): 22%

Ac-L-Glu-L-Val-L-Lys-L-Tyr-OH (Ac-EVKY-OH)
Increase in the activity of the human promoter of the FIBULIN 5 gene with regard to the negative control ([1]; 2 mg/mL): 27.45%
Increase in the activity of the human promoter of the LOXL1 gene with regard to the negative control ([2]; 2 mg/mL): 5.59%

Ac-L-Asn-L-Thr-L-Lys(Ac-L-Asn-L-Thr)-4-Abz-NH2
Increase in the activity of the human promoter of the FIBULIN 5 gene with regard to the negative control ([1]; 0.5 mg/mL): 39%
Increase in the activity of the human promoter of the LOXL1 gene with regard to the negative control ([2]; 0.5 mg/mL): 51%

Ac-L-Asn-L-IIe-L-Dpr-L-Tyr-OH (Ac-NI[Dap]Y-OH; SMILES CC[C@H](C)[C@H](NC(=O)[C@H](CC(N)=O)NC(C)=O)C(=O)N[C@@H](CN)C(=O)N[C@@H](Cc1ccc(O)cc1)C(=O)O)
Increase in the activity of the human promoter of the FIBULIN 5 gene with regard to the negative control ([1]; 2 mg/mL): 41.79%
Increase in the activity of the human promoter of the LOXL1 gene with regard to the negative control ([2]; 2 mg/mL): 8.75%

Ac-Asn-L-His-L-Lys(Ac-Asn-L-His)-4-Abz-NH2
Increase in the activity of the human promoter of the FIBULIN 5 gene with regard to the negative control ([1]; 0.5 mg/mL): 53%
Increase in the activity of the human promoter of the LOXL1 gene with regard to the negative control ([2]; 0.5 mg/mL): 47%

Ac-L-Asn-L-Ile-L-Lys-L-Tyr-OH (Ac-NIKY-OH)
Increase in the activity of the human promoter of the FIBULIN 5 gene with regard to the negative control ([1]; 2 mg/mL): 12.25%
Increase in the activity of the human promoter of the LOXL1 gene with regard to the negative control ([2]; 2 mg/mL): 9.83%

H-L-Gln-L-Val-L-Orn-L-Tyr-OH (H-QV[Orn]Y-OH; SMILES CC(C)[C@H](NC(=O)[C@@H](N)CCC(N)=O)C(=O)N[C@@H](CCCN)C(=O)N[C@@H](Cc1ccc(O)cc1)C(=O)O)
Increase in the activity of the human promoter of the FIBULIN 5 gene with regard to the negative control ([1]; 2 mg/mL): 7.04%
Increase in the activity of the human promoter of the LOXL1 gene with regard to the negative control ([2]; 2 mg/mL): 25.84%

Ac-L-Asp-L-Val-L-Lys-L-Tyr-NH2 (Ac-DVKY-NH2)
Increase in the activity of the human promoter of the FIBULIN 5 gene with regard to the negative control ([1]; 2 mg/mL): 30.26%
Increase in the activity of the human promoter of the LOXL1 gene with regard to the negative control ([2]; 2 mg/mL): 22.87%
